In patent publication US11498899B2, “Nitrone herbicides” (FMC Corporation, priority 2016, dated 2022):

Assays:
[1] = tested on: barnyardgrass (Echinochloa crus-galli); assay: Test A preemergence, visual injury rating 0-100 (0 no effect, 100 complete control); format: in vivo
[2] = tested on: foxtail, giant (giant foxtail, Setaria faberii); assay: Test A preemergence, visual injury rating 0-100; format: in vivo
[3] = tested on: kochia (Kochia scoparia); assay: Test A preemergence, visual injury rating 0-100; format: in vivo
[4] = tested on: pigweed (Amaranthus retroflexus); assay: Test A preemergence, visual injury rating 0-100; format: in vivo
[5] = tested on: ragweed (common ragweed, Ambrosia elatior); assay: Test A preemergence, visual injury rating 0-100; format: in vivo
[6] = tested on: ryegrass, Italian (Italian ryegrass, Lolium multiflorum); assay: Test A preemergence, visual injury rating 0-100; format: in vivo
[7] = tested on: barnyardgrass (Echinochloa crus-galli); assay: Test A postemergence, visual injury rating 0-100; format: in vivo; details: 0 to 100 scale
[8] = tested on: blackgrass (Alopecurus myosuroides); assay: Test A postemergence, visual injury rating 0-100; format: in vivo; details: 0 to 100 scale
[9] = tested on: corn (Zea mays); assay: Test A postemergence, visual injury rating 0-100; format: in vivo; details: 0 to 100 scale
[10] = tested on: foxtail, giant (giant foxtail, Setaria faberii); assay: Test A postemergence, visual injury rating 0-100; format: in vivo; details: 0 to 100 scale
[11] = tested on: galium (catchweed bedstraw, Galium aparine); assay: Test A postemergence, visual injury rating 0-100; format: in vivo; details: 0 to 100 scale
[12] = tested on: kochia (Kochia scoparia); assay: Test A postemergence, visual injury rating 0-100; format: in vivo; details: 0 to 100 scale
[13] = tested on: pigweed (Amaranthus retroflexus); assay: Test A postemergence, visual injury rating 0-100; format: in vivo; details: 0 to 100 scale
[14] = tested on: ragweed (common ragweed, Ambrosia elatior); assay: Test A postemergence, visual injury rating 0-100; format: in vivo; details: 0 to 100 scale
[15] = tested on: ryegrass, Italian (Italian ryegrass, Lolium multiflorum); assay: Test A postemergence, visual injury rating 0-100; format: in vivo; details: 0 to 100 scale
[16] = tested on: wheat (Triticum aestivum); assay: Test A postemergence, visual injury rating 0-100; format: in vivo; details: 0 to 100 scale
[17] = tested on: ducksalad (Heteranthera limosa); assay: Test B flooded paddy test, visual rating 0-100; details: Flood, 250 g ai/ha, applied to paddy water, rated after 13 to 15 days
[18] = tested on: barnyardgrass (Echinochloa crus-galli); assay: Test B flooded paddy test, visual rating 0-100; details: Flood, 250 g ai/ha, applied to paddy water, rated after 13 to 15 days
[19] = tested on: rice (Oryza sativa); assay: Test B flooded paddy test, visual rating 0-100 (0 no effect, 100 complete control); details: Flood, 250 g ai/ha, applied to paddy water, rated after 13 to 15 days

Row | SMILES | Barnyardgrass plant response rating (0 to 100 scale) ([1]; 125 g ai/ha) | Barnyardgrass plant response rating (0 to 100 scale) ([1]; 500 g ai/ha) | Foxtail, Giant plant response rating (0 to 100 scale) ([2]; 125 g ai/ha) | Foxtail, Giant plant response rating (0 to 100 scale) ([2]; 500 g ai/ha) | Kochia plant response rating (0 to 100 scale) ([3]; 125 g ai/ha) | Kochia plant response rating (0 to 100 scale) ([3]; 500 g ai/ha) | Pigweed plant response rating (0 to 100 scale) ([4]; 125 g ai/ha) | Pigweed plant response rating (0 to 100 scale) ([4]; 500 g ai/ha) | Ragweed plant response rating (0 to 100 scale) ([5]; 125 g ai/ha) | Ragweed plant response rating (0 to 100 scale) ([5]; 500 g ai/ha) | Ryegrass, Italian plant response rating (0 to 100 scale) ([6]; 125 g ai/ha) | Ryegrass, Italian plant response rating (0 to 100 scale) ([6]; 500 g ai/ha) | Barnyardgrass plant response rating ([7]; 125 g ai/ha) | Barnyardgrass plant response rating ([7]; 500 g ai/ha) | Blackgrass plant response rating ([8]; 125 g ai/ha) | Blackgrass plant response rating ([8]; 500 g ai/ha) | Corn plant response rating ([9]; 125 g ai/ha) | Corn plant response rating ([9]; 500 g ai/ha) | Foxtail, Giant plant response rating ([10]; 125 g ai/ha) | Foxtail, Giant plant response rating ([10]; 500 g ai/ha) | other results
1 | CC1=[N+]([O-])C(C(=O)Nc2cccc(F)c2F)C(c2cccc(C(F)(F)F)n2)C1 (centres unmarked) [Compound 90] | 90 | 90 | 50 | 90 | 0 | 60 | 0 | 0 | 0 | 0 | 0 | 0 | 10 | 80 | 30 | 50 | 0 | 0 | 20 | 90 | Galium plant response rating ([11]; 125 g ai/ha): 20; Galium plant response rating ([11]; 500 g ai/ha): 20; Kochia plant response rating ([12]; 125 g ai/ha): 0; Kochia plant response rating ([12]; 500 g ai/ha): 0; Pigweed plant response rating ([13]; 125 g ai/ha): 0; Pigweed plant response rating ([13]; 500 g ai/ha): 0; Ragweed plant response rating ([14]; 125 g ai/ha): 0; Ragweed plant response rating ([14]; 500 g ai/ha): 0; Ryegrass, Italian plant response rating ([15]; 125 g ai/ha): 0; Ryegrass, Italian plant response rating ([15]; 500 g ai/ha): 0; Wheat plant response rating ([16]; 125 g ai/ha): 0; Wheat plant response rating ([16]; 500 g ai/ha): 0; Ducksalad plant response rating (0 to 100 scale) [17]: 90; Barnyardgrass plant response rating (0 to 100 scale) [18]: 15; Rice plant response rating (0 to 100 scale) [19]: 0
2 | COc1cc(C)cc(C2CC(C)=[N+]([O-])C2C(=O)Nc2cccc(F)c2F)c1 (centres unmarked) [Compound 91] | 90 | 90 | 90 | 90 | 0 | 60 | 0 | 60 | 20 | 70 | 80 | 90 | 70 | 90 | 60 | 80 | 20 | 70 | 70 | 90 | Galium plant response rating ([11]; 125 g ai/ha): 0; Galium plant response rating ([11]; 500 g ai/ha): 30; Kochia plant response rating ([12]; 125 g ai/ha): 0; Kochia plant response rating ([12]; 500 g ai/ha): 30; Pigweed plant response rating ([13]; 125 g ai/ha): 0; Pigweed plant response rating ([13]; 500 g ai/ha): 30; Ragweed plant response rating ([14]; 125 g ai/ha): 0; Ragweed plant response rating ([14]; 500 g ai/ha): 30; Ryegrass, Italian plant response rating ([15]; 125 g ai/ha): 50; Ryegrass, Italian plant response rating ([15]; 500 g ai/ha): 50; Wheat plant response rating ([16]; 125 g ai/ha): 20; Wheat plant response rating ([16]; 500 g ai/ha): 50; Ducksalad plant response rating (0 to 100 scale) [17]: 55; Barnyardgrass plant response rating (0 to 100 scale) [18]: 65; Rice plant response rating (0 to 100 scale) [19]: 0
3 | CC1=[N+]([O-])C(C(=O)Nc2cccc(F)c2F)C(c2cc(C)cc(C(F)(F)F)c2)C1 (centres unmarked) [Compound 92] | 90 | 90 | 90 | 90 | 0 | 50 | 30 | 80 | 0 | 70 | 80 | 90 | 70 | 90 | 70 | 70 | 70 | 80 | 70 | 90 | Galium plant response rating ([11]; 125 g ai/ha): 50; Galium plant response rating ([11]; 500 g ai/ha): 60; Kochia plant response rating ([12]; 125 g ai/ha): 30; Kochia plant response rating ([12]; 500 g ai/ha): 70; Pigweed plant response rating ([13]; 125 g ai/ha): 20; Pigweed plant response rating ([13]; 500 g ai/ha): 60; Ragweed plant response rating ([14]; 125 g ai/ha): 0; Ragweed plant response rating ([14]; 500 g ai/ha): 70; Ryegrass, Italian plant response rating ([15]; 125 g ai/ha): 60; Ryegrass, Italian plant response rating ([15]; 500 g ai/ha): 70; Wheat plant response rating ([16]; 125 g ai/ha): 70; Wheat plant response rating ([16]; 500 g ai/ha): 80; Ducksalad plant response rating (0 to 100 scale) [17]: 25; Barnyardgrass plant response rating (0 to 100 scale) [18]: 70; Rice plant response rating (0 to 100 scale) [19]: 0
4 | CC1=[N+]([O-])C(C(=O)Nc2cccc(F)c2F)C(c2cc(C)cc(Cl)c2)C1 (centres unmarked) [Compound 94] | 90 | 90 | 90 | 90 | 10 | 60 | 20 | 80 | 30 | 90 | 60 | 80 | 80 | 90 | 70 | 90 | 70 | 80 | 80 | 90 | Galium plant response rating ([11]; 125 g ai/ha): 20; Galium plant response rating ([11]; 500 g ai/ha): 60; Kochia plant response rating ([12]; 125 g ai/ha): 20; Kochia plant response rating ([12]; 500 g ai/ha): 30; Pigweed plant response rating ([13]; 125 g ai/ha): 20; Pigweed plant response rating ([13]; 500 g ai/ha): 70; Ragweed plant response rating ([14]; 125 g ai/ha): 20; Ragweed plant response rating ([14]; 500 g ai/ha): 70; Ryegrass, Italian plant response rating ([15]; 125 g ai/ha): 60; Ryegrass, Italian plant response rating ([15]; 500 g ai/ha): 90; Wheat plant response rating ([16]; 125 g ai/ha): 40; Wheat plant response rating ([16]; 500 g ai/ha): 80; Ducksalad plant response rating (0 to 100 scale) [17]: 100; Barnyardgrass plant response rating (0 to 100 scale) [18]: 60; Rice plant response rating (0 to 100 scale) [19]: 0
